According to patent US8969375B2, “CDK9 kinase inhibitors” (AbbVie Inc., priority 2013, dated 2015):
Marks after values point to notes of the source that are not given here.

Experiments:
H929 cells = experiment: Cell viability assay (Cell TiterGlo), H929 cells; format: cell-based, human
Method: (§1) Cell viability assays were performed using A431 or H929 cells. A431 cells were seeded in 96-well plates at 10,000 cells/well, and after overnight incubation, treated with compounds at 2-times the final concentration to result in a dose response of 3-fold dilutions from 10 μM to 0.0005 μM (50 μL/well, 0.1% final DMSO concentration). H929 cells were seeded in 96-well plates at 10,000 cells/well and treated immediately with compounds as described above. After 24 hours at 37° C., cell viability was measured using Cell TiterGlo reagent (Promega) with a luminescence reader. Alternately, cell viability assays were performed in 384-well format. A431 cells were seeded in 384-well plates at 2500 cells/well and, after overnight incubation, treated with compounds in a dose response of 3-fold dilutions from 10 μM to 0.0005 μM ([…], 0.1% final DMSO concentration). For the H929 viability assay, […] of the compounds was dispensed into 384-well plates in a dose response as described above and cells were immediately seeded in 384-well plates at 2500 cells/well. After 24 hours at […], cell viability was measured using Cell TiterGlo reagent (Promega) with a luminescence reader.

CDK9/Cyclin T1 = biological target: T1, CDK9/Cyclin T1 (Homo sapiens, UniProt P50750); experiment: CDK9 enzyme activity, LANCE ULight TR-FRET kinase assay; format: biochemical; details: 1000 μM ATP, 4 nM CDK9/Cyclin T1, 30 minutes
T1 construct: purchased Carna Biosciences 04-110
T1 sequence (P50750 whole entry): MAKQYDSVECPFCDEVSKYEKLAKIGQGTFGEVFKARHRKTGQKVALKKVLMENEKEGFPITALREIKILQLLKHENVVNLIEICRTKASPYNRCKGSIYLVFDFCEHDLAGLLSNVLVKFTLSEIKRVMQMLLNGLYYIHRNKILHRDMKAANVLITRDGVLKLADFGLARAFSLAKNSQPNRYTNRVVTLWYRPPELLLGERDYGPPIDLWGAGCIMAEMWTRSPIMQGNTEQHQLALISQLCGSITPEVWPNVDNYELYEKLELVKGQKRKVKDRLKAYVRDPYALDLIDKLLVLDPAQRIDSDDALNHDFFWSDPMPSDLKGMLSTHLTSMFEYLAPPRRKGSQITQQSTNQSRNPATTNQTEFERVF
T1 sequence (O60563 whole entry partner): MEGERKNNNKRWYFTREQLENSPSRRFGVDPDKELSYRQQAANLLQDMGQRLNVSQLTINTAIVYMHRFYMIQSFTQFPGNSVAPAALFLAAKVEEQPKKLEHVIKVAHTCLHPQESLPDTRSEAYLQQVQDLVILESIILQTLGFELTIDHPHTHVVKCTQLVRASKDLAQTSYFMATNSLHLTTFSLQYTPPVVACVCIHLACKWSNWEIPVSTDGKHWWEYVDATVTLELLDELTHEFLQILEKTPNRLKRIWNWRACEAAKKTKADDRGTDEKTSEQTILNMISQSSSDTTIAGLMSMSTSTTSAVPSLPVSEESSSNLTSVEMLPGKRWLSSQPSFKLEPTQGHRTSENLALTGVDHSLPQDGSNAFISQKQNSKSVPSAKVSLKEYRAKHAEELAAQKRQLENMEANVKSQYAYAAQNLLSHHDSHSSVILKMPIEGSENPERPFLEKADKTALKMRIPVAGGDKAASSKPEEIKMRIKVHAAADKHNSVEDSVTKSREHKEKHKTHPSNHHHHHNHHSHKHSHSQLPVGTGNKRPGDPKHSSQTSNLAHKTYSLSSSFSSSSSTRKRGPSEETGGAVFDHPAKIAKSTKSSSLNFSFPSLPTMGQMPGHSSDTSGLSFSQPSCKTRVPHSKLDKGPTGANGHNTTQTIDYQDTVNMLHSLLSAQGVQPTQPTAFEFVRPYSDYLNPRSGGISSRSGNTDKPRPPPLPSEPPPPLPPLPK
Method: CDK9 enzyme activities were measured using LANCE ULight TR-FRET kinase assay reagents (PerkinElmer, Waltham, Mass.). Compounds were directly added in 100% DMSO to white low volume assay plates (Perkin Elmer Proxiplate 6008289) using a Labcyte Echo acoustic dispenser. Assay reagents in serine/threonine kinase assay buffer containing 20 mM HEPES, 10 mM MgCl2, 100 mM Na3VO4, and 0.0075% Triton X-100. were added for final reaction mixture concentrations of 1000 μM ATP, 100 nM U-light MBP peptide (Perkin Elmer TRF0109M) and reaction initiated with 4 nM CDK9/Cyclin T1 (Carna Biosciences 04-110). The kinase reaction was carried out for 30 minutes before addition of stopping buffer to a final of 20 mM EDTA and 0.5 nM of LANCE Ultra Europium anti-phospho-MBP antibody (PerkinElmer TRF0201M) in LANCE detection buffer (PerkinElmer CR97-100). The reaction was equilibrated for 1 hour and the signal read in the Perkin Elmer Envision in TR-FRET mode (excitation at 320 nm and emission at 615/665 nm).

A431 cells = experiment: Cell viability assay (Cell TiterGlo), A431 cells; format: cell-based
Method: as §1

H929 xenograft tumors = experiment: Xenograft tumor growth inhibition assay, H929 human multiple myeloma xenograft; format: in vivo, mice; details: IP, TW x 3; for % TGD (tumor growth delay): (T − C)/C × 100, median time to endpoint; for % TGI: female nude or SCID-beige mice, end of treatment period; for % removed from study: removed due to morbidity or weight loss in excess of 20%
Method: Xenograft Tumor Growth Inhibition Assay
The effect of Examples 1, 4, and 5 to inhibit the growth of H929 xenograft tumors implanted in mice was evaluated. NCI-H929 cells obtained from culture were suspended in cell culture medium (MEM, no calcium, no glutamine, Life Technologies Corporation) and diluted 1:1 with a solution of Matrigel™ (BD Biosciences, Franklin Lakes, N.J.). Tumor cells 5 million per site were inoculated subcutaneously into the right hind flank of female nude or SCID-beige mice (Charles River Labs).
Randomization into treatment and vehicle control groups (9-10/group) occurred when the mean tumor volume reached approximately 200 mm^3 Compounds were formulated in 2% DMSO, 5% Tween80, 20% PEG400, 73% HPMC. Administration of compound or vehicle was initiated on the day following randomization and continued for the indicated time. Tumors were measured twice a week throughout the treatment period using a pair of calipers and tumor volumes were calculated according to the formula V=L×W^2/2 (V: volume, mm^3; L: length, mm. W: width, […]). Tumor growth inhibition was calculated based on the mean tumor volume measured at the end of the treatment period according to the formula % TGI=100−mean tumor volume of treatment group/mean tumor volume of control group×100.

[1] = Homo sapiens, NCI-H929, 24 hours

Compound | IC50 (CDK9/Cyclin T1) | EC50 (H929 cells; [1]) | other results
1-[(5-fluoropyridin-3-yl)methyl]-6-{2-[1-(methylsulfonyl)piperidin-4-yl]-1H-pyrrolo[2,3-b]pyridin-4-yl}-1H-benzimidazole [Example 13] | 26 nM |  | EC50 (H929 cells; 24 hours): 29 nM; EC50 (A431 cells; 24 hours): 583 nM
Fc1cccc(Cn2cnc3ccc(-c4ccnc5[nH]c(C6CCNCC6)cc45)cc32)c1 [Example 2, 1-(3-fluorobenzyl)-6-[2-(piperidin-4-yl)-1H-pyrrolo[2,3-b]pyridin-4-yl]-1H-benzimidazole] | 9 nM | 44 nM | EC50 (A431 cells; Homo sapiens, A-431, 24 hours): 12 nM
N#Cc1cn(Cc2ccccc2)c2cc(-c3ccnc4[nH]c(C5CCNCC5)cc34)ccc12 [Example 3, 1-benzyl-6-[2-(piperidin-4-yl)-1H-pyrrolo[2,3-b]pyridin-4-yl]-1H-indole-3-carbonitrile] | 24 nM | 79 nM | EC50 (A431 cells; Homo sapiens, A-431, 24 hours): 24 nM
c1cc(-c2ccc3ncn(CC4CCOCC4)c3c2)c2cc(C3CCNCC3)[nH]c2n1 [Example 5, 6-{2-(piperidin-4-yl)-1H-pyrrolo[2,3-b]pyridin-4-yl}-1-(tetrahydro-2H-pyran-4-ylmethyl)-1H-benzimidazole] | 40 nM | 180 nM | % TGD (tumor growth delay) (H929 xenograft tumors; 7.50 mg/kg): 20%; % TGI (H929 xenograft tumors; 7.50 mg/kg): 39%; % removed from study (H929 xenograft tumors; 7.50 mg/kg): 22%; % TGD (tumor growth delay) (H929 xenograft tumors; 15 mg/kg): 31** %; % TGI (H929 xenograft tumors; 15 mg/kg): 58** %; % removed from study (H929 xenograft tumors; 15 mg/kg): 11%
N#Cc1cn(Cc2cccc(F)c2)c2cc(-c3ccnc4[nH]c(C5CCNCC5)cc34)ccc12 [Example 8, 1-(3-fluorobenzyl)-6-[2-(piperidin-4-yl)-1H-pyrrolo[2,3-b]pyridin-4-yl]-1H-indole-3-carbonitrile] | 18 nM | 72 nM | EC50 (A431 cells; Homo sapiens, A-431, 24 hours): 52 nM
Fc1cccc(Cn2ccc3cc(F)c(-c4ccnc5[nH]c(C6CCNCC6)cc45)cc32)c1 [Example 9, 4-[5-fluoro-1-(3-fluorobenzyl)-1H-indol-6-yl]-2-(piperidin-4-yl)-1H-pyrrolo[2,3-b]pyridine] | 50 nM | 100 nM | EC50 (A431 cells; Homo sapiens, A-431, 24 hours): 110 nM
N#Cc1cn(Cc2cccc(F)c2)c2cc(-c3ccnc4[nH]c(C5CCN(CC(O)CO)CC5)cc34)ccc12 (stereo not drawn) [Example 10, 6-{2-[1-(2,3-dihydroxypropyl)piperidin-4-yl]-1H-pyrrolo[2,3-b]pyridin-4-yl}-1-(3-fluorobenzyl)-1H-indole-3-carbonitrile] | 18 nM | 52.3 nM | EC50 (A431 cells; Homo sapiens, A-431, 24 hours): 71 nM
N#Cc1cn(Cc2cccc(F)c2)c2cc(-c3ccnc4[nH]c(C5CCNCC5)cc34)c(F)cc12 [Example 42, 5-fluoro-1-(3-fluorobenzyl)-6-[2-(piperidin-4-yl)-1H-pyrrolo[2,3-b]pyridin-4-yl]-1H-indole-3-carbonitrile] | 55 nM | 210 nM | 
Fc1cccc(Cn2ccc3ccc(-c4ccnc5[nH]c(C6CCNCC6)cc45)nc32)c1 [Example 43, 1′-(3-fluorobenzyl)-2-(piperidin-4-yl)-1H,1′H-4,6′-bipyrrolo[2,3-b]pyridine] | 26 nM | 150 nM | 
c1cc(-c2ccc3ccn(CC4CCOCC4)c3n2)c2cc(C3CCNCC3)[nH]c2n1 [Example 44, 2-(piperidin-4-yl)-1′-(tetrahydro-2H-pyran-4-ylmethyl)-1H,1′H-4,6′-bipyrrolo[2,3-b]pyridine] | 44 nM | 1100 nM | 
CNC(=O)N1CCC(c2cc3c(-c4cnc5ccn(Cc6cccc(F)c6)c5c4)ccnc3[nH]2)CC1 [Example 45, 4-{4-[1-(3-fluorobenzyl)-1H-pyrrolo[3,2-b]pyridin-6-yl]-1H-pyrrolo[2,3-b]pyridin-2-yl}-N-methylpiperidine-1-carboxamide] | 30 nM | 120 nM | 
CS(=O)(=O)N1CCC(c2cc3c(-c4cnc5ccn(CC6CCOCC6)c5c4)ccnc3[nH]2)CC1 [Example 46, 6-{2-[1-(methylsulfonyl)piperidin-4-yl]-1H-pyrrolo[2,3-b]pyridin-4-yl}-1-(tetrahydro-2H-pyran-4-ylmethyl)-1H-pyrrolo[3,2-b]pyridine] | 140 nM | 1800 nM | 
CNC(=O)N1CCC(c2cc3c(-c4cnc5ccn(Cc6cncc(F)c6)c5c4)ccnc3[nH]2)CC1 [Example 47, 4-(4-{1-[(5-fluoropyridin-3-yl)methyl]-1H-pyrrolo[3,2-b]pyridin-6-yl}-1H-pyrrolo[2,3-b]pyridin-2-yl)-N-methylpiperidine-1-carboxamide] | 23 nM | 600 nM | 
CS(=O)(=O)N1CCC(c2cc3c(-c4cnc5ccn(Cc6cncc(F)c6)c5c4)ccnc3[nH]2)CC1 [Example 48, 1-[(5-fluoropyridin-3-yl)methyl]-6-{2-[1-(methylsulfonyl)piperidin-4-yl]-1H-pyrrolo[2,3-b]pyridin-4-yl}-1H-pyrrolo[3,2-b]pyridine] | 35 nM | 540 nM | 
Fc1cncc(Cn2ccc3ccc(-c4ccnc5[nH]c(C6CCNCC6)cc45)nc32)c1 [Example 49, 1′-[(5-fluoropyridin-3-yl)methyl]-2-(piperidin-4-yl)-1H,1′H-4,6′-bipyrrolo[2,3-b]pyridine] | 24 nM | 250 nM | 
Fc1cncc(Cn2ccc3ncc(-c4ccnc5[nH]c(C6=CCNCC6)cc45)cc32)c1 [Example 50, 1-[(5-fluoropyridin-3-yl)methyl]-6-[2-(1,2,3,6-tetrahydropyridin-4-yl)-1H-pyrrolo[2,3-b]pyridin-4-yl]-1H-pyrrolo[3,2-b]pyridine] | 17 nM | 120 nM | 
CNC(=O)N1CCC(c2cc3c(-c4ccc5ccn(Cc6cncc(F)c6)c5n4)ccnc3[nH]2)CC1 [Example 52, 4-{1′-[(5-fluoropyridin-3-yl)methyl]-1H,1′H-4,6′-bipyrrolo[2,3-b]pyridin-2-yl}-N-methylpiperidine-1-carboxamide] | 11 nM | 1100 nM | 
CS(=O)(=O)N1CCC(c2cc3c(-c4ccc5ccn(Cc6cncc(F)c6)c5n4)ccnc3[nH]2)CC1 [Example 53, 1′-[(5-fluoropyridin-3-yl)methyl]-2-[1-(methylsulfonyl)piperidin-4-yl]-1H,1′H-4,6′-bipyrrolo[2,3-b]pyridine] | 8 nM | 1400 nM | 
CNC(=O)N1CC=C(c2cc3c(-c4ccc5ccn(Cc6cncc(F)c6)c5n4)ccnc3[nH]2)CC1 [Example 54, 4-{1′-[(5-fluoropyridin-3-yl)methyl]-1H,1′H-4,6′-bipyrrolo[2,3-b]pyridin-2-yl}-N-methyl-3,6-dihydropyridine-1(2 H)-carboxamide] | 27 nM | 210 nM | 
CS(=O)(=O)N1CC=C(c2cc3c(-c4ccc5ccn(Cc6cncc(F)c6)c5n4)ccnc3[nH]2)CC1 [Example 55, 1′-[(5-fluoropyridin-3-yl)methyl]-2-[1-(methylsulfonyl)-1,2,3,6-tetrahydropyridin-4-yl]-1H,1′H-4,6′-bipyrrolo[2,3-b]pyridine] | 65 nM | 370 nM | 
Fc1cncc(Cn2ccc3ccc(-c4ccnc5[nH]c(C6=CCCNC6)cc45)nc32)c1 [Example 56, 1′-[(5-fluoropyridin-3-yl)methyl]-2-(1,2,5,6-tetrahydropyridin-3-yl)-1H,1′H-4,6′-bipyrrolo[2,3-b]pyridine] | 29 nM | 250 nM | 
